Laboratory results reported in PubChem BioAssay (NCI).
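Each compound was tested at five concentrations against cells in 96-well plates for 48 hours. TGI is the concentration that stops growth completely.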

How the values were obtained:
Test in all cases: NCI tumour cell line growth inhibition, 48 h
[1] = tested on: M19-MEL melanoma
[2] = tested on: SF-539 CNS
[3] = tested on: RXF-631 renal
[4] = tested on: SNB-78 CNS
[5] = tested on: MDA-MB-435
[6] = tested on: MCF7 breast
[7] = tested on: BT-549 breast
[8] = tested on: P388/ADR leukemia
[9] = tested on: SN12K1 renal
[10] = tested on: P388 leukemia
[11] = tested on: HOP-18 NSCLC

SMILES	TGI [1]	TGI [2]	TGI [4]	TGI [5]	TGI [6]	other results
O=C1C(Cl)N(c2ccccc2[N+](=O)[O-])C1c1c[nH]c2ccccc12 (stereo not drawn)	> 100 µM	> 100 µM	–	–	–	–
O=C(Nc1cccc(O)c1)C(=O)C(C(=O)c1ccccc1F)C1OC(=O)c2ccccc21 (stereo not drawn)	54.4 µM	40.2 µM	92.9 µM	–	–	TGI [3]: 93.5 µM
OC1(c2ccc(Cl)cc2)c2ccc3ccccc3c2C2=N[C@H]3CCCC[C@@H]3N21 (stereo partly drawn)	–	43.7 µM	–	> 100 µM	> 100 µM	–
CCN1CCC(O)(C(C(=O)O)c2ccccc2)CC1 (stereo not drawn)	–	–	–	> 100 µM	> 100 µM	TGI [7]: > 100 µM
NC(N)=Nc1ncccc1[N+](=O)[O-]	–	> 100 µM	> 100 µM	–	> 64.4 µM	TGI [8]: > 100 µM; TGI [9]: > 100 µM; TGI [10]: > 100 µM; TGI [11]: > 100 µM
O=[N+]([O-])c1ccc(-c2ccc(-c3csc(Nc4ccccn4)n3)o2)cc1	> 100 µM	–	> 100 µM	–	–	TGI [3]: > 100 µM
O=c1oc2cc(O)ccc2c(O)c1C(c1ccc(C(c2c(O)c3ccc(O)cc3oc2=O)c2c(O)c3ccc(O)cc3oc2=O)cc1)c1c(O)c2ccc(O)cc2oc1=O	–	> 100 µM	–	> 100 µM	> 100 µM	TGI [7]: > 100 µM
CCC(C(=O)c1ccc(OC)c(OC)c1)N(C(=O)C(F)(F)F)C(C)c1ccccc1 (stereo not drawn)	–	–	–	> 100 µM	> 100 µM	–
